Where “and” joins values, the source holds several entries; their conditions need not be identical. Equal entries are not always repeated. Where two headings read alike, the source gives them in different places.
Tests used:
MCF7 (mammary carcinoma) = test: tumor cell growth inhibition (SRB, 72 h drug exposure); format: cell-based, human
Method: (§1) Lower numbers indicate higher potency. […] The data represent the mean values of at least three separate experiments. Lower numbers indicate greater activity.
(§2) Assessment of cell growth inhibition was determined according to the methods of Skehan et al., J. Nat. Cancer Inst. […] Briefly, cells were plated between 400 and 1200 cells/well in 96 well plates and incubated at 37° C. for 15-18 h prior to drug addition to allow attachment of cells. […] After a 72 h incubation, […] of ice-cold 50% TCA was added to each well and incubated for 1 h at 4° C. Plates were then washed 5 times with tap water to remove TCA, low-molecular-weight metabolites and serum proteins. Sulforhodamine B (SRB) (0.4%, […]) was added to each well. Following a 5 min incubation at room temperature, plates were rinsed 5 times with 0.1% acetic acid and air dried. […] Optical density was measured at 570 nm.

[1] = system: MCF7-R (mammary carcinoma cells 180-fold resistant to adriamycin); test: as above; format: cell-based, human
Method: as §1, §2

[2] = system: mammary adenocarcinoma MA17/A; test: oral administration to MA17/A tumor-bearing mice; format: in vivo, C3H/HeN female mice; design: key to Responses (activity rating): A = active; HA = highly active
Method: (§3) The efficacy of the test compounds on solid tumors in vivo was determined experimentally according to the following general experimental protocol:
(§4) The mice subjected to the experiment were subcutaneously grafted bilaterally with 30 to 60 mg of a tumor fragment on day zero. Mice bearing tumors were mixed before being subjected to the various treatments and controls. In the case of treatment of advanced tumors, tumors were allowed to develop to the desired size, and mice having insufficiently developed tumors were eliminated. The selected mice were distributed at random to undergo the treatments and controls. Mice not bearing tumors may also be subjected to the same treatments as the tumor-bearing mice in order to be able to dissociate the toxic effect from the specific effect on the tumor. Chemotherapy generally began from 3 to 22 days after grafting, depending on the type of tumor, and the mice were observed every day. The different mice groups were weighed 3 or 4 times a week until the maximum weight loss was attained (nadir), and the groups were then weighed at least once a week until the end of the trial.
(§5) The tumors were measured 2 or 3 times a week until the tumor reached approximately 2 grams, or until the animal died, if this occurred before the tumor reached 2 grams. The mice were autopsied when sacrificed.
(§6) The antitumor activity was determined in accordance with different parameters recorded such as dose (mg/kg), mode of administration, time of administration, cytotoxicity, toxicity and log10 cell kill.
SB-T-1213 was evaluated in C3H/HeN female mice bearing mammary adenocarcinoma MA17/A with an intermittent schedule of oral administrations. The compound for administration was formulated in 10% ethanol, 10% polysorbate 80, and 80% glucose/5% water.
SB-T-1213 was administered 3 times a day on 3 and 7 days post tumor implantation. The two highest dosages of 36.4 and 22.6 mg/kg/adm. were toxic, producing 5/5 drug related deaths (DD) and 20% body weight loss, respectively. However, the highest nontoxic dose of 14 mg/kg/adm. (total dose of 84 mg/kg), produced 8.4% body weight loss at nadir, 4 days post therapy. […] One of five mice was a tumor-free survivor (TFS) on day 94 post tumor implantation with this dosage. Two lower dosages of 8.7 and 5.4 mg/kg/adm. also maintained activity, having a log10 cell kill of greater than 3 and of 2.5, respectively.

[3] = system: docetaxel-resistant melanoma, B16/TXT; test: intravenous administration to B16/TXT melanoma-bearing mice; format: in vivo, B6D2F1 female mice; design: key to Responses (activity rating): A = active; HA = highly active; details: for T/C / log10 cell kill: days 3, 5, 7
Method: as §3, §4, §5, §6
SB-T-1213, SB-T-121303, SB-T-121304 and SB-T-1250 were evaluated in B6D2F1 female mice bearing the docetaxel-resistant melanoma, B16/TXT. The general experimental protocol was as described above. The compounds evaluated were administered intravenously on an intermittent schedule on days 3, 5, and 7 post tumor implantation.

MCF-7 ADRr = test: growth inhibition by cell counts, 72 h; format: cell-based, human; details: read-out: MCF-7 ADRr IC50
Method: (§7) Cells were plated in 6-well flat bottom plates (Falcon, Lincoln Park, N.J.) at a concentration of 10^5 cells ml in complete medium. After 24 h, the medium was replaced with media containing the test substances. Control cells were treated with vehicle alone. Cells were then washed twice and cultures maintained up to 72 h in complete medium (without removing the test substances). At this time point quadruplicate counts of triplicate cultures were performed. To calculate the growth inhibition effect, three independent experiments were performed for each test substance/cell line. The IC50 values were then calculated by fitting the concentration-effect curve data obtained in the three experiments with the sigmoid-Emax model using nonlinear regression, weighted by the reciprocal of the square of the predicted effect according to the method of Motulsky, H. J. and Ransnas, L. A., FASEB J. 1:365-74 (1987).

WiDr = test: growth inhibition by cell counts, 72 h; format: cell-based, human; details: read-out: WiDr IC50
Method: as §7

MCF-7 wt = test: growth inhibition by cell counts, 72 h; format: cell-based, human; details: read-out: MCF-7 wt IC50
Method: as §7

PC-3 = test: growth inhibition by cell counts, 72 h; format: cell-based, human
Method: as §7

A2780 = test: growth inhibition by cell counts, 72 h; format: cell-based, human; details: read-out: A2780 IC50
Method: as §7

DU-145 = test: growth inhibition by cell counts, 72 h; format: cell-based, human; details: read-out: DU-145 IC50
Method: as §7

NCI-H23 = test: growth inhibition by cell counts, 72 h; format: cell-based, human; details: read-out: NCI-H23 IC50
Method: as §7

B16 melanoma = test: intravenous administration to mice bearing B16 melanoma; format: in vivo, B6D2F1 female mice; design: key to Responses (activity rating): A = active; HA = highly active
Method: as §3, §4, §5, §6
SB-T-1213, SB-T-121303, SB-T-121304 and SB-T-1250 were evaluated in B6D2F1 female mice bearing B16 melanoma. The general experimental protocol was as described above. The compounds evaluated were administered intravenously (iv) on an intermittent schedule on days 3, 5, and 7 post tumor implantation. With the exception of SB-T-1250, solutions of the compounds for administration were prepared in 5% ethanol, 5% polysorbate 80, and 90% glucose 5% water.

A121 (ovarian carcinoma) = test: tumor cell growth inhibition (SRB, 72 h drug exposure); format: cell-based, human; details: Homo sapiens, A121; 72 h drug exposure
Method: as §1, §2

HT-29 (colon carcinoma) = test: as above; format: cell-based, human; details: Homo sapiens, HT-29; 72 h drug exposure
Method: as §1, §2

[4] = system: LCC6-WT: human breast carcinoma; test: cytotoxicity assay of second generation taxoids; format: cell-based; details: Homo sapiens, 72 h, read-out: LCC6-WT IC50
Method: A cytotoxicity assay of these new second generation taxoids was performed on human breast cancer cell lines, LCC6-WT and LCC-MDR, and selected taxoids were also assayed for their potency against MCF7 and MCF7-R (Skehan, P., et al., J. Nat. Cancer Inst. 1990, 82, 1107-1112).

[5] = system: LCC6-MDR: MDR1 transduced line; test: cytotoxicity assay of second generation taxoids; format: cell-based, human; details: Homo sapiens, LCC6MDR, 72 h, read-out: LCC6-MDR IC50

Structure (SMILES): CCC(=O)OC1C(=O)C2(C)C(O)CC3OCC3(OC(C)=O)C2C(OC(=O)c2ccccc2)C2(O)CC(OC(=O)C(O)C(C=C(C)C)NC(=O)OC(C)(C)C)C(C)=C1C2(C)C (stereo not drawn) [Taxoid Ib, 3′-Dephenyl-3′-(2-methyl-1-propenyl)-10-propanoyldocetaxel]
- IC50 (MCF7 (mammary carcinoma); Table 2, read-out: MCF7 IC50): 0.21 nM
- IC50 ([1]; Table 2): 2.16 nM
- Responses (activity rating) ([2]; 8.7 mg/kg/adm.): A
- tumor-free survivors (TFS) ([2]; 8.7 mg/kg/adm.): 1/5
- Responses (activity rating) ([2]; 14.0 mg/kg/adm.): HA
- tumor-free survivors (TFS) ([2]; 14 mg/kg/adm., day 94 post tumor implantation, listed as SB-T-1213, 14 mg/kg): One of five and 1/5
- T/C ([2]; 14.0 mg/kg/adm., days 3, 7): 0%
- % body weight loss at nadir ([2]; 14 mg/kg/adm., days 3, 7, total 84 mg/kg, listed as SB-T-1213): 8.4% and 8.4 (4) %
- body weight loss ([2]; 22.6 mg/kg/adm., 3 times a day on days 3 and 7): 20%
- drug related deaths (DD) ([2]; 36.4 mg/kg/adm., 3 times a day on days 3 and 7): 5/5
- highest nontoxic dose ([2]; 3 times a day on days 3 and 7): 14 mg/kg/adm.
- T/C ([3]; 4.5 mg/kg/adm.): 74%
- Responses (activity rating) ([3]; 7.3 mg/kg/adm.): A
- log10 cell kill ([3]; 7.3 mg/kg/adm.): 1
- Responses (activity rating) ([3]; 11.8 mg/kg/adm.): A
- log10 cell kill ([3]; 11.8 mg/kg/adm.): 1
- Responses (activity rating) ([3]; 19 mg/kg/adm.): A
- T/C ([3]; 19 mg/kg/adm.): 11%
- log10 cell kill ([3]; 19 mg/kg/adm.): 1.6
- % body weight loss at nadir ([3]; 19 mg/kg/adm., days 3, 5, 7, listed as SB-T-1213, 19 mg/kg): 17.1% and 17.1 (4) %
- IC50 (MCF-7 ADRr; 72 h): 8 nM
- IC50 (WiDr): 0.4 nM
- IC50 (MCF-7 wt; 72 h): 0.9 nM
- IC50 (PC-3; 72 h): 0.3 nM
- IC50 (A2780; 72 h): 1.77 nM
- IC50 (DU-145; 72 h): 0.3 nM
- IC50 (NCI-H23; 72 h): 0.7 nM
- Responses (activity rating) (B16 melanoma; 4.5 mg/kg/adm.): A
- log10 cell kill (B16 melanoma; 4.5 mg/kg/adm., days 3, 5, 7): 1.6
- Responses (activity rating) (B16 melanoma; 7.3 mg/kg/adm.): A
- log10 cell kill (B16 melanoma; 7.3 mg/kg/adm., days 3, 5, 7): 1.8
- Responses (activity rating) (B16 melanoma; 11.8 mg/kg/adm.): HA
- T/C (B16 melanoma; 11.8 mg/kg/adm., days 3, 5, 7): 0%
- log10 cell kill (B16 melanoma; 11.8 mg/kg/adm., days 3, 5, 7): 3
- % body weight loss at nadir (B16 melanoma; 11.8 mg/kg/adm., days 3, 5, 7, listed as SB-T-1213, 11.8 mg/kg): 15.3% and 15.3 (3) %
- drug related deaths (DD) (B16 melanoma; 19 mg/kg/adm., days 3, 5, 7): ⅕
- highest nontoxic dose (B16 melanoma; days 3, 5, 7): 11.8 mg/kg/adm.

Structure (SMILES): CC(=O)O[C@H]1C(=O)[C@@]2(C)[C@H]([C@H](OC(=O)c3ccccc3)[C@]3(O)C[C@H](OC(=O)[C@H](O)[C@@H](NC(=O)c4ccccc4)c4ccccc4)C(C)=C1C3(C)C)[C@]1(OC(C)=O)CO[C@@H]1C[C@@H]2O [Paclitaxel, paclitaxel, reference compound]
- IC50 (MCF7 (mammary carcinoma); Homo sapiens, MCF7, 72 h drug exposure, Table 1, read-out: MCF7 (breast) IC50): 1.7 nM
- IC50 (MCF7 (mammary carcinoma); Homo sapiens, MCF7, 72 h drug exposure, Table 3, read-out: MCF7 IC50): 1.7 nM
- IC50 (A121 (ovarian carcinoma)): 6.1 nM
- IC50 ([1]; Homo sapiens, MCF7R, 72 h drug exposure, Table 1): 300 nM
- IC50 (HT-29 (colon carcinoma)): 3.2 nM
- IC50 [4]: 3.1 nM
- IC50 [5]: 346 nM
- IC50 (MCF-7 ADRr; Homo sapiens, MCF7, 72 h): 3300 nM
- IC50 (WiDr; Homo sapiens, WiDr): 3.8 nM
- IC50 (MCF-7 wt; Homo sapiens, MCF7, 72 h): 5.8 nM
- IC50 (PC-3; Homo sapiens, PC-3, 72 h): 3.4 nM
- IC50 (A2780; Homo sapiens, A2780, 72 h): 5.4 nM
- IC50 (DU-145; Homo sapiens, DU-145, 72 h): 1.5 nM
- IC50 (NCI-H23; Homo sapiens, NCI-H23, 72 h): 4.1 nM
